Earlier results in US20130195827A1, “NUTRIGENOMIC METHODS TO OVERCOME CARBOHYDRATE BINGEING AND OVEREATING” (priority 2011, published 2013).

What was measured:
lipolysis = conditions: in vitro, p<0.01

Compound	basal rate of lipolysis (lipolysis)	increase of leptin secretion (leptin secretion) [%]
C[C@]12CCC(=O)C=C1CC[C@@H]1[C@@H]2[C@@H](O)C[C@@]2(C)[C@H]1CC[C@]2(O)C(=O)CO [cortisol]	significantly reduced	–
Insulin: hormone insulin	–	25
